Measurements taken from patent US20190254984A1, “COMPOSITION AND FOOD OR DRINK” (Advanced Medical Frontier Co., Ltd., priority 2012, published 2019).

Tests used:
ob/ob mice [1] = experiment: Example 2: body weight of ob/ob mice after oral administration; type: in vivo; details: γ-oryzanol alone, oral daily 5 and 320 μg/g of body weight/day; FIG. 1B
Method: The γ-oryzanol-incorporating particle prepared in Example 1 was orally administered to mice for evaluation.
(§1) First, the γ-oryzanol-incorporating particle was suspended in distilled water at 5%, 1.25%, and 0.31% (w/v). As a control, γ-oryzanol was suspended in 0.5% (w/v) methylcellulose solution (manufactured by Wako Pure Chemical Industries, Ltd.) at 0.05% and 3.2% (0.5 and 32 mg/ml).
(§2) Subsequently, each of the γ-oryzanol-incorporating particle suspensions and the γ-oryzanol suspensions was orally administered to ob/ob mice (five weeks old, male, B6. Lepob/J mice (homozygote (Lepob/Lepob)), made by Charles River Laboratories Japan, Inc.) (n=6) using a probe. For the details, the γ-oryzanol-incorporating particle suspension at 0.3, 1.3, and 5 μg/g of body weight/14 days in terms of γ-oryzanol was administered to the mice for two days followed by a five-day rest period every two weeks; and observation was made for 14 days. The daily dose was 1.1, 4.4, and 17.5 μg/g of body weight/day, respectively. […]
(§3) One week and two weeks after the beginning of the administration, the body weight and blood glucose level of the mice were measured. […] In such a test, following to 18-hour fasting, glucose was orally administered at 0.75 g/kg using a probe; and the blood glucose level was measured from the time of administration to two hours thereafter.

ob/ob mice [2] = experiment: Example 2: blood glucose level of ob/ob mice; type: in vivo; details: γ-oryzanol alone, oral daily 5 and 320 μg/g of body weight/day; FIG. 2B
Method: as §1, §2, §3

ob/ob mice [3] = experiment: Example 2: oral glucose tolerance test in ob/ob mice; type: in vivo; details: γ-oryzanol alone 5 and 320 μg/g of body weight/day; vs vehicle; FIG. 3C, 3D
Method: as §1, §2, §3

[4] = system: IL-8 secretion from TNF-α-stimulated intestinal epithelial cells (Caco-2); experiment: Example 3: IL-8 secretion upon TNF-α stimulation of Caco-2 cells (ELISA); type: cell-based, human; details: 24 h pretreatment with 1 μg/ml of γ-oryzanol; a decrease observed; compared with no and 0.1 μg/ml γ-oryzanol; FIG. 7A
Method: As for cells, Caco-2 (RCB0988, RIKEN, the Institute of Physical and Chemical Research) was used. Caco-2 was cultured in a […] culture dish until reaching semiconfluent. As for a medium, Dulbecco modified Eagle's Medium (DMEM, D5796, manufactured by Sigma-Aldrich) was used. To the medium, non-essential amino acids (M7145, manufactured by Sigma-Aldrich) and Penicillin/Streptomycin (hereinafter referred to as “PS”; manufactured by Gibco, Life Technologies Corporation Japan) were added.
Cells with 50 passages were detached with 0.25% trypsin/0.02% EDTA and seeded in a 24-well plate at a concentration of 2×10^5 cells/well. The cells were cultured in DMEM with 10% FBS (fetal bovine serum), 1% non-essential amino acids, and 1% PS for 14 days. The medium was changed every other day; and the cells were sufficiently differentiated to be used the experiment below.
The medium was removed 24 hours before stimulation with TNF-α; and the cells were washed with 1 ml of PBS per well twice. […]
The collected supernatant was subjected to ELISA (enzyme immunity measurement assay) to measure the amount of IL-8 in the supernatant. […] At the same time, the total amount of proteins in the supernatant was measured by using a bicinchoninic acid assay (Pierce BCA Protein Assay Kit, manufactured by Thermo Scientific). […]

ob/ob mice [5] = experiment: Example 5: body weight of genetically obese mice over four weeks; type: in vivo; details: Orz everyday for four weeks, even at 320 μg/g of body weight/day; n=14; FIG. 9B
Method: (§4) Ob/ob mice were raised at 24° C. under a light/dark cycle of 12 hours/12 hours. The mice were raised in conditions where they were able to freely take feed and water. The body weight of mice was measured every week.
(§5) γ-oryzanol incorporated with PLGA particles was dissolved in distilled water (hereinafter referred to as “Nano Orz”) and administered to the mice using a probe at a dose of 0.3, 1.3, or 5 μg/g of body weight per day for two days every two weeks. As a solution of γ-oryzanol which was not enclosed in the PLGA particle, γ-oryzanol (manufactured by Wako Pure Chemical Industries, Ltd.) was dissolved in a 0.5% methylcellulose solution (hereinafter referred to as “Orz”). Orz was administered to the stomach using a probe everyday for four weeks (5 or 320 μg/g of body weight/day).
Data were expressed as mean±standard error (s.e.m). One-way analysis of variance, repeated measures analysis of variance, and multiple comparisons following repeated measures analysis of variance (Bonferroni/Dunn method) were employed as appropriate. For analysis of difference between two groups, Student's t-test was employed. Difference was considered to be significant with P<0.05.

ob/ob mice [6] = experiment: Example 5: blood glucose level of genetically obese mice over four weeks; type: in vivo; details: Orz even at 320 μg/g of body weight/day, n=14, FIG. 10B
Method: as §4, §5
Whole blood was collected from the tail vein of mice; and blood glucose was measured using a simple blood glucose meter. A blood sample was further collected from the network of the retro orbital vein. For a glucose tolerance test, the mice were fasted for 18 hours and thereafter administered with glucose at 0.75 g/kg of body weight. The blood glucose level was measured at the predetermined time. […] The concentration of triglycerides in the plasma was determined by Triglyceride E-Test Wako.
(§6) Data were expressed as mean±standard error (s.e.m). […]

ob/ob mice [7] = experiment: Example 5: glucose tolerance test; type: in vivo; details: Orz even at 320 μg/g of body weight/day; n=14; FIG. 11C, 11D
Method: as §5
(§7) Whole blood was collected from the tail vein of mice; and blood glucose was measured using a simple blood glucose meter. A blood sample was further collected from the network of the retro orbital vein. For a glucose tolerance test, the mice were fasted for 18 hours and thereafter administered with glucose at 0.75 g/kg of body weight. The blood glucose level was measured at the predetermined time. In addition, for an insulin tolerance test, insulin (0.5 unit/kg of body weight; manufactured by Eli Lilly) was intraperitoneally injected to the mice that had fasted for four hours. The concentration of triglycerides in the plasma was determined by Triglyceride E-Test Wako.
as §6

ob/ob mice [8] = experiment: Example 5: insulin tolerance test; type: in vivo; details: Orz even at 320 μg/g of body weight/day; n=14; FIG. 12C, 12D
Method: as §5, §7, §6

ob/ob mice [9] = experiment: Example 5: plasma triglyceride; type: in vivo; details: Orz at the same amount as Nano Orz; n=6; FIG. 13
Method: as §5, §7, §6

Chop = experiment: Example 5: ER stress marker gene expression in tissues (real time PCR), Chop; type: in vivo, mice; details: for expression level of Chop: hypothalamus, Orz even at 320 μg/g of body weight/day
Method: as §5
(§8) The hypothalamus, the islets of Langerhans, the adipose tissue of the mesentery, the liver, the epididymal adipose tissue, and the subcutaneous adipose tissue were collected from the mice; and the expression level of ER stress marker genes (Chop, ERdj4, and Xbp1s), and inflammation marker genes (TNF-α and MCP-1) was quantified using a quantitative real time polymerase chain reaction. The islets of Langerhans was isolated from mice by digestion with collagenase (Liberase TL; manufactured by Roche Diagnostics K.K.) and purified using Histopaque (trademark) gradient (Histopaque 1077; manufactured by Sigma-Aldrich).
(§9) Using TRIzol (registered trademark) RNA Isolation Reagents (manufactured by Life Technologies Corporation), total RNA was extracted from each of the tissues; and cDNA was synthesized using iScript (trademark) cDNA Synthesis Kit (manufactured by Bio-Rad Laboratories, Inc.). Next, quantitative real time PCR was carried out using StepOnePlus (trademark) Real-Time PCR System, Fast TaqMan Universal Master Mix, and Fast SYBR Green Master Mix (manufactured by Applied Biosystems). The level of mRNA was normalized with that of 18S rRNA.
(§10) Data were expressed as mean±standard error (s.e.m). One-way analysis of variance, repeated measures analysis of variance, and multiple comparisons following repeated measures analysis of variance (Bonferroni/Dunn method) were employed as appropriate. For analysis of difference between two groups, Student's t-test was employed. […]

ERdj4 = experiment: Example 5: ER stress marker gene expression in tissues (real time PCR), ERdj4; type: in vivo, mice; details: Orz even at 320 μg/g of body weight/day
Method: as §5
as §8, with “Sigma-Aldrich). […]” for “Sigma-Aldrich).”
as §6

Xbp1s = experiment: Example 5: ER stress marker gene expression in tissues (real time PCR), Xbp1s; type: in vivo, mice; details: Orz even at 320 μg/g of body weight/day, N=8
Method: as §5, §8, §9, §10

TNF-α = experiment: Example 5: inflammation marker gene expression in adipose tissues (real time PCR), TNF-α; type: in vivo, mice; details: Orz even at 320 μg/g of body weight/day, N=8
Method: as §5
as §8, with “Sigma-Aldrich). […]” for “Sigma-Aldrich).”
as §6

MCP-1 = experiment: Example 5: inflammation marker gene expression in adipose tissues (real time PCR), MCP-1; type: in vivo, mice; details: Orz even at 320 μg/g of body weight/day, N=8
Method: as §5
as §8, with “Sigma-Aldrich). […]” for “Sigma-Aldrich).”
as §6

obese mice = details: oral γ-oryzanol 320 mg/kg; cited from earlier work

Substance: γ-oryzanol
- weight gain (ob/ob mice [1]): not observed
- blood glucose level (ob/ob mice [2]): not observed
- blood glucose level in oral glucose tolerance test (ob/ob mice [3]): comparable
- amount of IL-8 in the supernatant [4]: no significant difference
- weight gain (ob/ob mice [5]): no significant suppression
- blood glucose level (ob/ob mice [6]): no significant change
- glucose tolerance (glucose tolerance test, blood glucose and AUC) (ob/ob mice [7]): no improvement
- insulin tolerance (insulin tolerance test, blood glucose and AUC) (ob/ob mice [8]): no improvement
- concentration of plasma triglyceride (ob/ob mice [9]): not decreased
- expression of Chop (Chop; adipose tissue in the mesentery, Orz 320 μg/g of body weight/day, N=8, FIG. 15A): significantly inhibited
- expression level of Chop (Chop; N=8, FIG. 14A): did not inhibit
- expression level of Chop (Chop; printed in the sentence on ERdj4 (FIG. 14B)): did not inhibit
- expression level of ERdj4 (ERdj4; islets of Langerhans, N=8, FIG. 14C): did not inhibit
- expression level of ERdj4 (ERdj4; liver, printed in the sentence on Chop (FIG. 15C)): did not inhibit
- expression level of Xbp1s (Xbp1s; adipose tissue in the mesentery, FIG. 15B): did not inhibit
- expression level of Xbp1s (Xbp1s; islets of Langerhans, FIG. 14D): did not inhibit
- expression level of Xbp1s (Xbp1s; liver, FIG. 15D): did not inhibit
- expression level of TNF-α (TNF-α; epididymal adipose tissue, FIG. 16A): did not inhibit
- expression level of TNF-α (TNF-α; subcutaneous fatty tissue, FIG. 16C): did not inhibit
- expression level of MCP-1 (MCP-1; epididymal adipose tissue, FIG. 16B): did not inhibit
- expression level of MCP-1 (MCP-1; subcutaneous fatty tissue, FIG. 16D): did not inhibit
- blood glucose level (obese mice): decreased
- insulin secretion (obese mice): promotion
- lipid absorption from the small intestine (obese mice): inhibition
- taste for high fat diets (obese mice): restriction
